Assay results reported in ChEMBL document CHEMBL1201862, “PubChem BioAssay data set” (2004).
Calls of active or inactive are those of the source.

How the values were obtained:
Aminopeptidase N = molecular target: T1, Aminopeptidase N (Plasmodium falciparum FcB1/Columbia, UniProt O96935); assay: malaria alanyl aminopeptidase activity blockers – biochemical, fluorogenic H-Leu-NHMec substrate, 1536-well (AID 1445); parameters: species or system Plasmodium falciparum 3D7, 3D7
T1 sequence (O96935 whole entry): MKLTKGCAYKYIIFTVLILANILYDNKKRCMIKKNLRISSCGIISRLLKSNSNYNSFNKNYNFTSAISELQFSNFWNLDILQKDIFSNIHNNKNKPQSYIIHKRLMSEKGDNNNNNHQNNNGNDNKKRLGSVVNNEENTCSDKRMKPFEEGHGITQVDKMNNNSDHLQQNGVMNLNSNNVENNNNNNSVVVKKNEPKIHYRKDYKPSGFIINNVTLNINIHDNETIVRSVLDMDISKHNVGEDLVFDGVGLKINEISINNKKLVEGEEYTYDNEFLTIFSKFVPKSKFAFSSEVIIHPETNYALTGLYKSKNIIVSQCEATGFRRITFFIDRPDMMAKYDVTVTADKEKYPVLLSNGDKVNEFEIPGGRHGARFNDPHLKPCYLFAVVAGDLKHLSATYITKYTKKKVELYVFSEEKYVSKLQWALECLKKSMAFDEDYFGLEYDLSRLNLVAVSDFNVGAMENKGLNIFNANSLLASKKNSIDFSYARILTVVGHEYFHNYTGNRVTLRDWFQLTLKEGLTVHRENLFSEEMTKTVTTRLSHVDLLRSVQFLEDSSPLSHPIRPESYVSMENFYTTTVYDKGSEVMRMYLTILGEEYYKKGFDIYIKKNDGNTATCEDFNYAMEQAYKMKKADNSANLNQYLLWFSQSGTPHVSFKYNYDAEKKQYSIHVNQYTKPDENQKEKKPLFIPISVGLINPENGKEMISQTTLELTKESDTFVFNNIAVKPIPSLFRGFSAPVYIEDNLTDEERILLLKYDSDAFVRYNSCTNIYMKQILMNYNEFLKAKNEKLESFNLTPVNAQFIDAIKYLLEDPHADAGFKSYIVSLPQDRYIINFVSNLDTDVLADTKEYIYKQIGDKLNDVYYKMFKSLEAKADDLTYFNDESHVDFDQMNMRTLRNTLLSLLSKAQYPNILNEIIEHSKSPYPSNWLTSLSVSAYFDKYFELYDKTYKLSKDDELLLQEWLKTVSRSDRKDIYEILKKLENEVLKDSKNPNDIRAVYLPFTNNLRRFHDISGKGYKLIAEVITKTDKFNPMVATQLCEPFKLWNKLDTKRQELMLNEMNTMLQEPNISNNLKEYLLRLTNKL

Procathepsin L = Procathepsin L (Homo sapiens, UniProt P07711)
[1] = molecular target: RAC-gamma serine/threonine-protein kinase (Homo sapiens, UniProt Q9Y243); assay type: functional
Sequence of RAC-gamma serine/threonine-protein kinase (Q9Y243 whole entry): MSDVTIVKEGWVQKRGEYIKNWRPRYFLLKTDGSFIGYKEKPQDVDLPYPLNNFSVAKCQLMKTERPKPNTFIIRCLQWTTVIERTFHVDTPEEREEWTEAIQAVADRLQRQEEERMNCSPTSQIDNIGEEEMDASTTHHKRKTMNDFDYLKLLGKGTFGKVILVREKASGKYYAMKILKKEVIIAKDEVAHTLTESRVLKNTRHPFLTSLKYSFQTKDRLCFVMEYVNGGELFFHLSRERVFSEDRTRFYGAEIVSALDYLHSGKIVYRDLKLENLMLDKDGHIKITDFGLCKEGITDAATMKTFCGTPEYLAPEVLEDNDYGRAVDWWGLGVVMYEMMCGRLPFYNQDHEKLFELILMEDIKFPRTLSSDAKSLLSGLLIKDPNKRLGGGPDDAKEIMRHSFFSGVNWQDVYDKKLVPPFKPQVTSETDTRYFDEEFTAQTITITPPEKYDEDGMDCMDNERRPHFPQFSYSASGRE

[2] = molecular target: 5'-AMP-activated protein kinase catalytic subunit alpha-1 (Homo sapiens, UniProt Q13131); assay type: functional
[3] = molecular target: Tyrosine-protein kinase receptor TYRO3 (Homo sapiens, UniProt Q06418); assay type: functional;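 note: TYRO3 value obtained as one member of a kinome-wide profiling panel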
Sequence of Tyrosine-protein kinase receptor TYRO3 (Q06418 whole entry): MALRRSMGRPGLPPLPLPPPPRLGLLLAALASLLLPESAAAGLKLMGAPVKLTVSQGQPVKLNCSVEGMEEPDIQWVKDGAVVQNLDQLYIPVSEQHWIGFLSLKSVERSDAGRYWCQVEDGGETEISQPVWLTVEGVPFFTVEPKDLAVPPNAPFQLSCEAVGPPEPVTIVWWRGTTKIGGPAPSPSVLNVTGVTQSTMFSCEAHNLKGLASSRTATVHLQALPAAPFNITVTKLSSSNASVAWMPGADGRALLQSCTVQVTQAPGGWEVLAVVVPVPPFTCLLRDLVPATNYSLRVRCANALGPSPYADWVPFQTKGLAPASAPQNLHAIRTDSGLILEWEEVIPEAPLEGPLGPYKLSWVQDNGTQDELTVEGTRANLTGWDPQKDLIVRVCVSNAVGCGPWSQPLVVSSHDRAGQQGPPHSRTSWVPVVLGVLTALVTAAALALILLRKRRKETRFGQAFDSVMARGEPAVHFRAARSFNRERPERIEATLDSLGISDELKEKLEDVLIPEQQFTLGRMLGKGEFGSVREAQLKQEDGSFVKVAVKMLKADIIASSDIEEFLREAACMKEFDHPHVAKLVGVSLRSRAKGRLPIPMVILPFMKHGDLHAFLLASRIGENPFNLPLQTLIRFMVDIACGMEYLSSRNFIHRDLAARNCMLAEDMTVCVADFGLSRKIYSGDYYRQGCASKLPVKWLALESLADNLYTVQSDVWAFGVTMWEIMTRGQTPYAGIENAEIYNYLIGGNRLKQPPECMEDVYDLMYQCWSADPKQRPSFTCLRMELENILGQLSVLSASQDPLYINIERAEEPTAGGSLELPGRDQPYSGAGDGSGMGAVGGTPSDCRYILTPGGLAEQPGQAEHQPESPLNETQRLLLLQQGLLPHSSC

Aurora kinase A = Aurora kinase A (Homo sapiens, UniProt O14965); assay type: functional;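 note: value from the Navigating the Kinome kinase panel profiling, panel entry STK6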
Sequence of Aurora kinase A (O14965 whole entry): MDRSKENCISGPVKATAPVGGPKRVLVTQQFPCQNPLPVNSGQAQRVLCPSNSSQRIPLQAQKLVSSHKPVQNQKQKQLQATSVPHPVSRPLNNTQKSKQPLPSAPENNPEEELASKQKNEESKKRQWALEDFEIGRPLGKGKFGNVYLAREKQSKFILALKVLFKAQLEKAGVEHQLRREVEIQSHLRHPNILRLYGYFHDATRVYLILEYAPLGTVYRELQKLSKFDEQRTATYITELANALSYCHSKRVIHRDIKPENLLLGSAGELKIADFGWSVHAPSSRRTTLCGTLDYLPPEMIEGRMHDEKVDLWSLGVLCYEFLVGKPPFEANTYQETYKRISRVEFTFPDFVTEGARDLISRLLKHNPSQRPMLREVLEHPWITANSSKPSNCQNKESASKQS

[4] = molecular target: Receptor-type tyrosine-protein kinase FLT3 (Homo sapiens, UniProt P36888); assay type: functional;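 note: FLT3 was tested as one member of a kinome-wide kinase panel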
[5] = molecular target: MAP kinase-interacting serine/threonine-protein kinase 2 (Homo sapiens, UniProt Q9HBH9); assay type: functional
Sequence of MAP kinase-interacting serine/threonine-protein kinase 2 (Q9HBH9 whole entry): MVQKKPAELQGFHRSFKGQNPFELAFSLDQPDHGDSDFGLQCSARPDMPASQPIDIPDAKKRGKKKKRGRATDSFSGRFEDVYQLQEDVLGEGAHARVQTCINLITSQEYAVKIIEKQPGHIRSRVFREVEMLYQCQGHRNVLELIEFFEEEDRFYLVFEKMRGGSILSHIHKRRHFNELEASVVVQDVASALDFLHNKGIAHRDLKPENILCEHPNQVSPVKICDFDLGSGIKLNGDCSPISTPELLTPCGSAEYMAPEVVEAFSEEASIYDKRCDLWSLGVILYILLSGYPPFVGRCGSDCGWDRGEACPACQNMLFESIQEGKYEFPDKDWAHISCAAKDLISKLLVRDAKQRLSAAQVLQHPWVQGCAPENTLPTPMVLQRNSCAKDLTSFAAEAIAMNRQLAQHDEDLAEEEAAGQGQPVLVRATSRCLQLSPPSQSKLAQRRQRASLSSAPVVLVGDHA

[6] = molecular target: Dual specificity tyrosine-phosphorylation-regulated kinase 4 (Homo sapiens, UniProt Q9NR20); assay type: functional
Sequence of Dual specificity tyrosine-phosphorylation-regulated kinase 4 (Q9NR20 whole entry): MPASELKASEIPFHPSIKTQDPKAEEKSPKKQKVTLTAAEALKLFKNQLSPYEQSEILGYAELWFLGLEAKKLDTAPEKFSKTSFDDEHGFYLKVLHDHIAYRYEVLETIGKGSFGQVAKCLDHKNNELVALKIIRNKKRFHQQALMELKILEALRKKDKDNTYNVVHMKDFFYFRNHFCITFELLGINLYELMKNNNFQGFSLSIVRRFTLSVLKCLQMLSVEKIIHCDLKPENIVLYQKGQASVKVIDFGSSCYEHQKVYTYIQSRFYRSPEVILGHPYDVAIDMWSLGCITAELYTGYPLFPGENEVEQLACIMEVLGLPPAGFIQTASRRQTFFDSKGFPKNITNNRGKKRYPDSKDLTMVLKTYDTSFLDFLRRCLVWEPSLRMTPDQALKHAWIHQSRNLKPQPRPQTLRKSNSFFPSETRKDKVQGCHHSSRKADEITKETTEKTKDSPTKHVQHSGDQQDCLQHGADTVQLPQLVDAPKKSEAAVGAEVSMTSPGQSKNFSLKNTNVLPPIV

[7] = molecular target: Serine/threonine-protein kinase DCLK1 (Homo sapiens, UniProt O15075); assay type: functional;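 note: affinity for DCLK1 (listed as DCAMKL1) measured as one member of a kinome-wide kinase profiling panel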
Sequence of Serine/threonine-protein kinase DCLK1 (O15075 whole entry): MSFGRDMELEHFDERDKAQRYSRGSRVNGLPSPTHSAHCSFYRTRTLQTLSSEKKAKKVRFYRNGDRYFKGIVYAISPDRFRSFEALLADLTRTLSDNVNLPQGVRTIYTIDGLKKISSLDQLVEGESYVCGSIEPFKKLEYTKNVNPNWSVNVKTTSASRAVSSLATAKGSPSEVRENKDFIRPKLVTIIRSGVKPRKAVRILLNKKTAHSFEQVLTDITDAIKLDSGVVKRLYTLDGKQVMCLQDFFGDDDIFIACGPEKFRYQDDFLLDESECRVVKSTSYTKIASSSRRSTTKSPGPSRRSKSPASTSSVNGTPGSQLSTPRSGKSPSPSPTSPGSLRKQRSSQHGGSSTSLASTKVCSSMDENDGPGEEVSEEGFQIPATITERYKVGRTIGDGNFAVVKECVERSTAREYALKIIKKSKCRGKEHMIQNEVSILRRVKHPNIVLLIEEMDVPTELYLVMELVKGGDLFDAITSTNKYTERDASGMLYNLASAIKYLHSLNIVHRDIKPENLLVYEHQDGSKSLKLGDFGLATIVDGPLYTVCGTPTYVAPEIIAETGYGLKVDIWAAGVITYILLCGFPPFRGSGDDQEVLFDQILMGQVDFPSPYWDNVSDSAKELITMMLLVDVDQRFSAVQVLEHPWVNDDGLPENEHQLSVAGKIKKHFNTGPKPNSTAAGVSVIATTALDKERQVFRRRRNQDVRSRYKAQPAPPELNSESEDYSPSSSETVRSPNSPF

[8] = molecular target: Serine/threonine-protein kinase Nek2 (Homo sapiens, UniProt P51955); assay type: functional
[9] = molecular target: Cyclin-dependent kinase 8 (Homo sapiens, UniProt P49336); assay: Navigating the Kinome. Panel member name: CDK8; assay type: functional
[10] = molecular target: Cyclin-dependent kinase 7 (Homo sapiens, UniProt P50613); assay type: functional;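 note: value comes from a kinome-wide kinase profiling panel in which CDK7 is one member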
Sequence of Cyclin-dependent kinase 7 (P50613 whole entry): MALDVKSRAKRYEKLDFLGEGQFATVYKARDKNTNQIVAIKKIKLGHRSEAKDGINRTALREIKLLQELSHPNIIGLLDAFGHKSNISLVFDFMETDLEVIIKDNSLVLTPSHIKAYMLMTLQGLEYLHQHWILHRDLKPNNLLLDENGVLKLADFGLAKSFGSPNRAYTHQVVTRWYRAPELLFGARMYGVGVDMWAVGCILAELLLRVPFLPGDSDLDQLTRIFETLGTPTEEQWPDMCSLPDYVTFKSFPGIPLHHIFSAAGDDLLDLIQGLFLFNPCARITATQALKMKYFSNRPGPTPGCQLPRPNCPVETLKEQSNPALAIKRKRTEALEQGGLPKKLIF

[11] = molecular target: Lymphokine-activated killer T-cell-originated protein kinase (Homo sapiens, UniProt Q96KB5); assay type: functional;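 note: value comes from a kinase panel screen in which TOPK was one of the panel members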
[12] = molecular target: Leukocyte tyrosine kinase receptor (Homo sapiens, UniProt P29376); assay: Navigating the Kinome. Panel member name: LTK; assay type: functional
Sequence of Leukocyte tyrosine kinase receptor (P29376 whole entry): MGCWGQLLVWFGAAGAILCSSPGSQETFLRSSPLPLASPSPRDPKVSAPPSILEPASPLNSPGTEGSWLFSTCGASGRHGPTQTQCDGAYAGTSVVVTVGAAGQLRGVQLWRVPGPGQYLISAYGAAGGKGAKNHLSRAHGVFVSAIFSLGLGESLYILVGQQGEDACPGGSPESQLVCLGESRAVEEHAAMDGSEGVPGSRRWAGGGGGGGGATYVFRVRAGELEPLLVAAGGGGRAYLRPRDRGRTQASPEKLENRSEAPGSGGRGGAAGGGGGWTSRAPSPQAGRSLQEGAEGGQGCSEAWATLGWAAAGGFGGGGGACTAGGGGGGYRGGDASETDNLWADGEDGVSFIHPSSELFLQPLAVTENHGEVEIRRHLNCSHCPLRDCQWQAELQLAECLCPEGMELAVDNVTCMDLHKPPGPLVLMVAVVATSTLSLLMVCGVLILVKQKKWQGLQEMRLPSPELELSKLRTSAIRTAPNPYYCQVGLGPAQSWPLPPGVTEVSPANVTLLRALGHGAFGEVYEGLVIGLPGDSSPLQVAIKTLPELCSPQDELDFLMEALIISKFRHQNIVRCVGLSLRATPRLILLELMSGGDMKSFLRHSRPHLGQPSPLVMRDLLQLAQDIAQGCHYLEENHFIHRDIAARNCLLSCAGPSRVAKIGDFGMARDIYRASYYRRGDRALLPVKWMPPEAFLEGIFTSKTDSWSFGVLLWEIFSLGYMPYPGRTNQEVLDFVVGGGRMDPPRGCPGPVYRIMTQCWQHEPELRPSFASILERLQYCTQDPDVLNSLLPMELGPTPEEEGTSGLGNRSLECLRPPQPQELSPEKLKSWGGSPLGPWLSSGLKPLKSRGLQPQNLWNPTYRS

Protein RecA = molecular target: T2, Protein RecA (Mycobacterium tuberculosis, UniProt P9WHJ3); assay: Fluorescence Cell-Free Homogeneous Dose Retest to Identify Inhibitors of RecA-Intein Splicing Activity. [Related pubchem assays (depositor defined):AID2097, AID2223, AID489010, AID492950]; assay type: functional
T2 sequence (P9WHJ3 whole entry): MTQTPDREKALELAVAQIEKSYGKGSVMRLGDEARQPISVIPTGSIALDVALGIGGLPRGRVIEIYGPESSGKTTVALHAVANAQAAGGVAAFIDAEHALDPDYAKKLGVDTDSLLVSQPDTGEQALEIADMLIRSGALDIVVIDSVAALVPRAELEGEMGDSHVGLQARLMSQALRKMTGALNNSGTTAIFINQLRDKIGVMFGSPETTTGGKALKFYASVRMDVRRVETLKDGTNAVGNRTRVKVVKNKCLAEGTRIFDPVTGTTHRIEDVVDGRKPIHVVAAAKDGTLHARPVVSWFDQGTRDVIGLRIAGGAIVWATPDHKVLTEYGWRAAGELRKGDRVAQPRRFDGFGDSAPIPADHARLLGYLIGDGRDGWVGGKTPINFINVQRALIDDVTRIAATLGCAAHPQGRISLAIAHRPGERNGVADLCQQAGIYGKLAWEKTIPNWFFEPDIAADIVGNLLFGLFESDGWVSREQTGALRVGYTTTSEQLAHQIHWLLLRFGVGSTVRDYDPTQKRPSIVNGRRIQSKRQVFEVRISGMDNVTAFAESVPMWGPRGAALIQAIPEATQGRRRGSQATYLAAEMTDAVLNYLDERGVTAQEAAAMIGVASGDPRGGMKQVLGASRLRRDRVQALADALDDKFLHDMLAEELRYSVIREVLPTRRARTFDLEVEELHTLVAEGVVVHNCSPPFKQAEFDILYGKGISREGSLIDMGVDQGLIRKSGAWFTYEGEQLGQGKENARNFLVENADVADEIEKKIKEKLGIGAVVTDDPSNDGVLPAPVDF

[13] = inhibitors of TRPM1-promoter reporter in SK-MEL-5 – cell-based, luciferase, dry powder, set 9, MITF inhibitor project, dose response (AID 651588); assay type: functional
[14] = viability loss in MITF-independent A375 cells – cell-based, CellTiter-Glo luminescence, dry powder, set 6, counter-screen for MITF inhibitor project, dose response (AID 624488); assay type: functional; conditions: A-375

For `CS(=O)(=O)c1ccc2c(c1)SC1=NC(=O)/C(=C/c3ccc(O)c(O)c3)C(=N)N12`, the IC50 (Aminopeptidase N) was 51.2 µM (active) and the IC50 (Procathepsin L) was > 59.6 µM (not active).

With `COc1ccc(C(=O)Nc2n[nH]c3ccc(-c4cn(Cc5ccccc5)nn4)cc23)cc1OC` the Ki [1] was 1.26 µM (active), the Ki [2] was 0.0631 µM (active) and the Ki [3] was > 2 µM (inactive). The Ki (Aurora kinase A) was 0.398 µM (active), the Ki [4] was > 1.26 µM (inactive) and the Ki [5] was 3.16 µM (active). The Ki [6] was 6.31 µM (active), the Ki [7] was 5.01 µM (active) and the Ki [8] was 6.31 µM (active). The Ki [9] was > 3.98 µM (inactive), the Ki [10] was 0.126 µM (active) and the Ki [11] was > 10 µM (inactive). For the same molecule, the Ki [12] was > 2.51 µM (inactive).

In the case of `C=CCNC1=C(Cl)C(=O)c2ccccc2C1=O`, the EC50 (Protein RecA) is reported as 10.4 µM (active), the AC50 [13] is reported as 5.58 µM (active) and the AC50 [14] is reported as 50.4 µM (active).

In the case of `CCOC(=O)C(C(=O)OCC)c1cc(Br)c2noc3c2c1C(=O)c1ccccc1-3`, the EC50 (Protein RecA) is reported as 0.393 µM (active).
